In DBAASP:
Values after ≈ are worked out from the molar mass of the structure shown. Values joined by “and” are separate entries in the source; they are usually repeats but may differ in a detail not shown here. Equal entries are not always repeated. Each block holds one compound with its values, some of them ahead of it.

Key:
Assay in all cases: ≥ marks a high value that may be exact or a test limit, other limits are often not marked, values filed in µg/mL are converted to µM
[1] = system: Acinetobacter baumannii CCARM 12036
[2] = system: Escherichia coli KCTC 1682
[3] = system: Pseudomonas aeruginosa CCARM 2095
[4] = system: Escherichia coli CCARM 1238
[5] = system: Staphylococcus aureus CCARM 3126
[6] = system: Pseudomonas aeruginosa CCARM 2002
[7] = system: Salmonella typhimurium KCTC 1926
[8] = system: Acinetobacter baumannii CCARM 12035
[9] = system: Staphylococcus epidermidis KCTC 1917
[10] = system: Pseudomonas aeruginosa KCTC 1637
[11] = system: Bacillus subtilis KCTC 3028
[12] = system: Acinetobacter baumannii KCTC 2508
[13] = system: Staphylococcus aureus CCARM 3108
[14] = system: Salmonella typhimurium CCARM 8003
[15] = system: Staphylococcus aureus KCTC 1621
[16] = system: Salmonella typhimurium CCARM 8007
[17] = system: Escherichia coli CCARM 1229
[18] = system: Staphylococcus aureus CCARM 3089
[19] = system: Streptococcus sobrinus ATCC 6715
[20] = system: Streptococcus sanguinis ATCC 10556
[21] = system: Streptococcus mutans UA159
[22] = system: Pseudomonas aeruginosa ATCC 9027
[23] = system: Escherichia coli ATCC 2592
[24] = system: Staphylococcus aureus ATCC 6538
[25] = system: Staphylococcus aureus 1550
[26] = system: Micrococcus luteus ATCC 9341
[27] = system: Candida albicans ATCC 36232
[28] = system: Staphylococcus aureus ATCC 25923
[29] = system: Acinetobacter baumannii ATCC 15308
Streptococcus pneumoniae = system: Streptococcus pneumoniae
Citrobacter sp. = system: Citrobacter sp.
[30] = system: Escherichia coli ATCC 25922
Staphylococcus aureus = system: Staphylococcus aureus
Enterobacter cloacae = system: Enterobacter cloacae
[31] = system: Pseudomonas aeruginosa ATCC 15442
Klebsiella pneumoniae = system: Klebsiella pneumoniae
[32] = system: Listeria monocytogenes DSM 20600
[33] = system: Listeria fleischmannii DSM 24998
Listeria grayi DSM 20601 = system: Listeria grayi DSM 20601
[34] = system: Micrococcus luteus DSM 20030
Escherichia coli D31 = system: Escherichia coli D31
[35] = system: Staphylococcus aureus DSM 2569
[36] = system: Klebsiella pneumoniae KCTC 2208
[37] = system: Bacillus subtilis KCTC 2217
[38] = system: Staphylococcus epidermidis
Escherichia coli = system: Escherichia coli
[39] = system: Staphylococcus saprophyticus
Streptococcus sp. = system: Streptococcus sp.
Acinetobacter baumannii = system: Acinetobacter baumannii
[40] = system: Bacillus cereus KCTC 1012
Streptococcus pyogenes = system: Streptococcus pyogenes

SMILES: CC(C)[C@H](NC(=O)[C@H](CCCN=C(N)N)NC(=O)[C@H](C)NC(=O)[C@H](C)NC(=O)[C@H](CCCCN)NC(=O)[C@H](CCCCN)NC(=O)[C@H](Cc1ccccc1)NC(=O)[C@H](Cc1ccccc1)NC(=O)[C@H](CCCN=C(N)N)NC(=O)CNC(=O)[C@H](Cc1c[nH]c2ccccc12)NC(=O)CN)C(=O)NCC(=O)N[C@@H](CCCCN)C(=O)N[C@@H](CCCN=C(N)N)C(=O)N[C@H](C(=O)NCC(=O)N[C@@H](CCCCN)C(=O)O)C(C)C [GWGRFFKKAARVGKRVGK]
MIC [19]: ≥ 250 µM | MIC [20]: ≥ 250 µM | MIC [21]: ≥ 250 µM

SMILES: CC(C)[C@H](NC(=O)[C@H](CCCCN)NC(=O)[C@@H](NC(=O)[C@H](CCCCN)NC(=O)[C@H](Cc1ccccc1)NC(=O)[C@H](CCCCN)NC(=O)[C@@H](NC(=O)[C@H](CCCCN)NC(=O)[C@@H](N)Cc1ccccc1)C(C)C)C(C)C)C(=O)N[C@@H](CCCCN)C(=O)O [FKVKFKVKVK]
MIC [22]: 4.8 µM (≈ 6 µg/mL) | MIC [23]: 10 µM (≈ 12.5 µg/mL) | MIC [24]: 7.2 µM (≈ 9 µg/mL) | MIC [25]: 8.8 µM (≈ 11 µg/mL) | MIC [26]: 4 µM (≈ 5 µg/mL) | MIC [27]: 5 µM and 8 µM

SMILES: CC[C@H](C)[C@H](NC(=O)[C@H](CC(C)C)NC(=O)CNC(=O)CNC(=O)[C@H](CC(C)C)NC(=O)[C@@H](N)Cc1ccccc1)C(=O)N[C@@H](CCCCN)C(=O)N[C@@H](CCCCN)C(=O)N[C@@H](Cc1c[nH]c2ccccc12)C(=O)N1CCC[C@H]1C(=O)N[C@@H](Cc1c[nH]c2ccccc12)C(=O)N[C@@H](Cc1c[nH]c2ccccc12)C(=O)N1CCC[C@H]1C(=O)N[C@@H](Cc1c[nH]c2ccccc12)C(=O)N[C@@H](CCCN=C(N)N)C(=O)N[C@@H](CCCN=C(N)N)C(N)=O [FLGGLIKKWPWWPWRR]
MIC [28]: 3.67 µM (≈ 7.81 µg/mL) | MIC [29]: 14.7 µM (≈ 31.2 µg/mL) | MIC (Streptococcus pneumoniae): 3.67 µM (≈ 7.81 µg/mL) | MIC (Citrobacter sp.): ≥ 118 µM | MIC [30]: 3.67 µM (≈ 7.81 µg/mL) | MIC (Staphylococcus aureus): 3.67 µM (≈ 7.81 µg/mL) | MIC (Enterobacter cloacae): ≥ 118 µM | MIC [31]: 14.7 µM (≈ 31.2 µg/mL) | MIC (Klebsiella pneumoniae): > 118 µM

The next lines start with the values.

MIC [1]: 16 µM (≈ 43.8 µg/mL) | MIC [2]: 16 µM (≈ 43.8 µg/mL) | MIC [3]: 16 µM (≈ 43.8 µg/mL) | MIC [4]: 16 µM (≈ 43.8 µg/mL) | MIC [5]: ≥ 64 µM | MIC [6]: 16 µM (≈ 43.8 µg/mL) | MIC [7]: 16 µM (≈ 43.8 µg/mL) | MIC [8]: 16 µM (≈ 43.8 µg/mL) | MIC [9]: ≥ 64 µM | MIC [10]: 8 µM (≈ 21.9 µg/mL) | MIC [11]: ≥ 64 µM | MIC [12]: 16 µM (≈ 43.8 µg/mL) | MIC [13]: ≥ 64 µM | MIC [14]: 16 µM (≈ 43.8 µg/mL) | MIC [15]: ≥ 64 µM | MIC [16]: 16 µM (≈ 43.8 µg/mL) | MIC [17]: ≥ 32 µM | MIC [18]: ≥ 64 µM
SMILES: CC[C@H](C)[C@H](NC(=O)[C@H](C)NC(=O)[C@H](CCC(=O)O)NC(=O)[C@H](Cc1cnc[nH]1)NC(=O)[C@@H](NC(=O)[C@@H]1CCCN1C(=O)[C@H](CCC(N)=O)NC(=O)[C@H](Cc1ccccc1)NC(=O)[C@@H](NC(=O)[C@H](CCCCN)NC(=O)[C@H](CCCCN)NC(=O)[C@H](CC(C)C)NC(=O)[C@H](C)NC(=O)[C@H](CC(N)=O)NC(=O)[C@H](CC(C)C)NC(=O)CN)C(C)C)[C@@H](C)CC)C(=O)N[C@@H](CCCCN)C(=O)N[C@@H](CCCCN)C(=O)N[C@H](C(=O)N[C@@H](CC(N)=O)C(=O)N[C@@H](CC(N)=O)C(=O)N[C@@H](Cc1cnc[nH]1)C(=O)N[C@H](C(=O)N[C@@H](CCC(N)=O)C(=O)O)C(C)C)[C@@H](C)CC [GLNALKKVFQPIHEAIKKINNHVQ]

MIC [32]: 8 µM (≈ 11.4 µg/mL) | MIC [33]: 4 µM (≈ 5.71 µg/mL) | MIC (Listeria grayi DSM 20601): 15 µM (≈ 21.4 µg/mL) | MIC [34]: 8 µM (≈ 11.4 µg/mL) | MIC (Escherichia coli D31): 8 µM (≈ 11.4 µg/mL) | MIC [35]: 15 µM (≈ 21.4 µg/mL)
SMILES: CC[C@H](C)[C@H](NC(=O)CNC(=O)[C@H](CO)NC(=O)[C@H](CC(C)C)NC(=O)[C@H](CC(C)C)NC(=O)[C@H](C)NC(=O)[C@H](CO)NC(=O)[C@H](Cc1ccccc1)NC(=O)[C@@H](N)Cc1ccccc1)C(=O)N[C@@H](CCCCN)C(=O)N[C@@H](CO)C(=O)N[C@@H](CC(C)C)C(=O)N[C@@H](Cc1ccccc1)C(N)=O [FFSALLSGIKSLF]

MIC [28]: 1 µM and > 0.5 µM | MIC [36]: 2 µM (≈ 4.83 µg/mL) | MIC [37]: 1 µM (≈ 2.42 µg/mL) | MIC [38]: 3.1 µM (≈ 7.49 µg/mL) | MIC (Escherichia coli): 12.5 µM (≈ 30.2 µg/mL) | MIC [39]: 3.1 µM (≈ 7.49 µg/mL) | MIC (Streptococcus sp.): 3.1 µM (≈ 7.49 µg/mL) | MIC (Acinetobacter baumannii): 4.42 µM and 12.5 µM | MIC [12]: 2 µM (≈ 4.83 µg/mL) | MIC [40]: 2 µM (≈ 4.83 µg/mL) | MIC (Streptococcus pyogenes): ≥ 50 µM | MIC [30]: 1 µM (≈ 2.42 µg/mL) | MIC (Staphylococcus aureus): 3.1 µM and 1.41 µM | MIC (Klebsiella pneumoniae): 50 µM (≈ 121 µg/mL)
SMILES: CC[C@H](C)[C@H](NC(=O)[C@H](Cc1ccccc1)NC(=O)[C@H](CCCCN)NC(=O)[C@H](CC(C)C)NC(=O)[C@H](C)NC(=O)[C@H](CO)NC(=O)[C@H](CC(C)C)NC(=O)[C@H](Cc1c[nH]c2ccccc12)NC(=O)[C@@H](N)C(C)C)C(=O)NCC(=O)N[C@@H](CCCCN)C(=O)N[C@@H](Cc1cnc[nH]1)C(=O)N[C@@H](CC(C)C)C(=O)N[C@@H](C)C(=O)N[C@@H](CCCCN)C(=O)N[C@@H](Cc1cnc[nH]1)C(=O)N[C@@H](CCC(N)=O)C(=O)N[C@@H](CC(C)C)C(=O)N[C@@H](CO)C(=O)N[C@@H](CCCCN)C(=O)N[C@@H](CC(C)C)C(N)=O [VWLSALKFIGKHLAKHQLSKL]
